Assay results from PubChem BioAssay (NCI).
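Each compound was tested at five concentrations against cells in 96-well plates for 48 hours. Abbreviation: GI50, concentration required for 50% inhibition of growth. TGI is the concentration that stops growth completely.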

Each compound was assayed on NCI-H23 lung (assay: growth of human tumour cells (NCI), 48 h).

Compared with CCCCCCCC(=O)OCC(COC(=O)C(C)(C)C)OC(=O)Cc1ccccc1 (stereo not given), COC(=O)CC(=O)OSc1ccccc1 is lower in TGI: greater than 100 µM for the first, 82.9 µM for the second.

Cc1nnc2n(c1=O)CCCN2C and CC1CC(N2CCOCC2)=Nc2ccccc2N1C (stereo not given) cannot be ordered by TGI: greater than 100 µM for the first, greater than 100 µM for the second.

Nc1ncnc2c1nnn2C1C=CC(CP(=O)(O)O)C1 (stereo not given) and Cc1ccccc1-c1nc2c(N)nc(N)nc2nc1N cannot be ordered by TGI: greater than 100 µM for the first, greater than 100 µM for the second.

First: CN(C)CCn1c(=O)c2ccc(NCCCN(C)CCCNc3ccc4c(=O)n(CCN(C)C)c(=O)n5c6ccc(O)cc6c(=O)c3c45)c3c(=O)c4cc(O)ccc4n(c1=O)c23
Second: CN(C)C(=O)C(F)(F)C(c1ccc(F)cc1)C1C(=O)N(C)C(=O)N(C)C1=O (stereo not given)
The TGI of the first is lower: 0.226 µM for the first, greater than 100 µM for the second.

S=C(Cc1ccc2c(c1)Sc1ccccc1O2)N1CCOCC1 and Cc1c(N2CCOCC2)nc2ccc(Cl)cc2c1-c1ccccc1 cannot be ordered by TGI: greater than 100 µM for the first, greater than 100 µM for the second.

c1ccc2c(c1)SCCCS2 and NCCN1CCCCCc2ccccc21 cannot be ordered by TGI: greater than 100 µM for the first, greater than 10 µM for the second.

COc1ccc2c(c1)c1c(n2CCN2CCCCC2)-c2cccc(OC)c2CC1 and CN(CCN1CCCC1)C1CCc2cc(Cl)c(Cl)cc2C1 (stereo not given) are within 1.5-fold of each other in TGI: 32.1 µM for the first, 30.1 µM for the second.

O=[N+]([O-])c1ccc(C[P+]2(c3ccccc3)CCCCC2)cc1 and CN(/N=C1\C(=O)Nc2ccccc21)c1ccccc1 cannot be ordered by TGI: greater than 100 µM for the first, greater than 100 µM for the second.

First: Cn1nc(-c2ccc(S(=O)(=O)/N=C(\NN)Nc3ccc(Cl)cc3)s2)cc1C(F)(F)F
Second: COc1ccc(C2Oc3ccc(Cl)cc3C=C2[N+](=O)[O-])cc1 (stereo not given)
The TGI of the first is lower: 40.9 µM for the first, greater than 100 µM for the second.

Compared with C[C@]12CCC3[C@@H](CCC45OC4C(=O)CC[C@]35C)C1Cc1cnn(-c3ccc(F)cc3)c1N2 (stereo not given in full), COCOc1ccc(C(=O)Oc2cccc3c2OC(C)(C)O3)c(OCOC)c1 is 2.1-fold lower in TGI: 54.4 µM for the first, 26.3 µM for the second.

COc1cc(C)c(CC/C(C)=C/Cc2cc(O)ccc2O)c(C)c1C and COc1cc2ccc3c4cc(OC)c(OC)cc4c[n+](C)c3c2cc1O cannot be ordered by TGI: greater than 25 µM for the first, greater than 100 µM for the second.

First: c1ccc(-c2c(-c3ccccc3)[n+](Cc3ccc4ccccc4c3)c(-c3ccc(-c4nc5ccccc5s4)cc3)n2Cc2ccc3ccccc3c2)cc1
Second: COc1ccc(CNc2cnc3ccc(N)cc3n2)cc1
The TGI of the first is lower: 0.759 µM for the first, greater than 100 µM for the second.

O=c1[nH]c(NCc2ccncc2)nc2nc[nH]c12 and c1c[nH]c(-c2cccc3nsnc23)c1 cannot be ordered by TGI: greater than 100 µM for the first, greater than 100 µM for the second.

Cc1cc([N+](=O)[O-])c(C)c2c1[nH]c1ccc(Cl)cc12 and CC(=O)NNc1nc(C)c(C(=O)NNC(=O)C(=O)Nc2ccc([N+](=O)[O-])cc2[N+](=O)[O-])s1 cannot be ordered by TGI: greater than 100 µM for the first, greater than 100 µM for the second.

CO/N=C1\CC(NC(=O)C(F)(F)F)c2ccsc21 (stereo not given) and CCOC(=O)C1C(c2ccc(Cl)cc2Cl)NC(c2ccc(C)cc2)C(C(=O)OC)S1(=O)=O (stereo not given) cannot be ordered by TGI: greater than 100 µM for the first, greater than 100 µM for the second.

COC(=O)/C=C(\C)CC/C=C(\C)CCC1OC1(C)C (stereo not given) and CN(C)CCNC(=O)c1cccc2c1Nc1ccccc1S2 are within 1.5-fold of each other in TGI: 24.2 µM for the first, 28.5 µM for the second.

With COc1cccc(C2c3cc4c(cc3OC(O)C2C)OCO4)c1OC (stereo not given) the TGI was 64 µM.

c1ccc(-c2c(-c3ccccc3)[n+](Cc3ccc4ccccc4c3)c(-c3ccc(-c4nc5ccccc5s4)cc3)n2Cc2ccc3ccccc3c2)cc1 gave a GI50 of 0.0933 µM.

The compounds below were run on NCI-H522 lung (assay: growth of human tumour cells (NCI), 48 h).

COc1ccc2ccc3oc(=O)c(C)cc3c2c1 and COc1ccc(C2Oc3ccc(Cl)cc3C=C2[N+](=O)[O-])cc1 (stereo not given) cannot be ordered by TGI: greater than 100 µM for the first, greater than 100 µM for the second.

CN(C)c1nc(Oc2nc(N(C)C)nc(N(C)C)n2)nc(N(C)C)n1 and Cc1ccccc1-c1nc2c(N)nc(N)nc2nc1N cannot be ordered by TGI: greater than 100 µM for the first, greater than 100 µM for the second.

Going from CN(C)CCn1c(=O)c2ccc(NCCCN(C)CCCNc3ccc4c(=O)n(CCN(C)C)c(=O)n5c6ccc(O)cc6c(=O)c3c45)c3c(=O)c4cc(O)ccc4n(c1=O)c23 to COc1cc(C)c(CC/C(C)=C/Cc2cc(O)ccc2O)c(C)c1C, the TGI rises from 0.0802 µM to greater than 25 µM.

c1ccc2c(c1)SCCCS2 and NCCN1CCCCCc2ccccc21 cannot be ordered by TGI: greater than 100 µM for the first, greater than 10 µM for the second.

First: COc1ccc2c(c1)c1c(n2CCN2CCCCC2)-c2cccc(OC)c2CC1
Second: CN(CCN1CCCC1)C1CCc2cc(Cl)c(Cl)cc2C1 (stereo not given)
The TGI of the first is 1.8-fold lower: 18.8 µM for the first, 33 µM for the second.

O=[N+]([O-])c1ccc(C[P+]2(c3ccccc3)CCCCC2)cc1 and CN(/N=C1\C(=O)Nc2ccccc21)c1ccccc1 cannot be ordered by TGI: greater than 100 µM for the first, greater than 100 µM for the second.

First: C[C@]12CCC3[C@@H](CCC45OC4C(=O)CC[C@]35C)C1Cc1cnn(-c3ccc(F)cc3)c1N2 (stereo not given in full)
Second: CC1CC(N2CCOCC2)=Nc2ccccc2N1C (stereo not given)
The TGI of the first is lower: 34.8 µM for the first, greater than 100 µM for the second.

Going from COC(=O)CC(=O)OSc1ccccc1 to CCOC(=O)C1C(c2ccc(Cl)cc2Cl)NC(c2ccc(C)cc2)C(C(=O)OC)S1(=O)=O (stereo not given), the TGI rises from 12.8 µM to greater than 100 µM.

Cc1c(N2CCOCC2)nc2ccc(Cl)cc2c1-c1ccccc1 and COc1ccc(CNc2cnc3ccc(N)cc3n2)cc1 cannot be ordered by TGI: greater than 100 µM for the first, greater than 100 µM for the second.

O=c1[nH]c(NCc2ccncc2)nc2nc[nH]c12 and c1c[nH]c(-c2cccc3nsnc23)c1 cannot be ordered by TGI: greater than 100 µM for the first, greater than 100 µM for the second.

Compared with Cc1cc([N+](=O)[O-])c(C)c2c1[nH]c1ccc(Cl)cc12, CC(=O)NNc1nc(C)c(C(=O)NNC(=O)C(=O)Nc2ccc([N+](=O)[O-])cc2[N+](=O)[O-])s1 is higher in TGI: 46 µM for the first, greater than 100 µM for the second.

COc1cc2ccc3c4cc(OC)c(OC)cc4c[n+](C)c3c2cc1O showed a TGI of 78.7 µM.

The compounds below were run on NCI/ADR-RES ovarian (assay: growth of human tumour cells (NCI), 48 h).

COc1ccc2ccc3oc(=O)c(C)cc3c2c1 and COc1ccc(C2Oc3ccc(Cl)cc3C=C2[N+](=O)[O-])cc1 (stereo not given) cannot be ordered by TGI: greater than 100 µM for the first, greater than 100 µM for the second.

Nc1ncnc2c1nnn2C1C=CC(CP(=O)(O)O)C1 (stereo not given) and Cc1ccccc1-c1nc2c(N)nc(N)nc2nc1N cannot be ordered by TGI: greater than 100 µM for the first, greater than 100 µM for the second.

CN(C)CCn1c(=O)c2ccc(NCCCN(C)CCCNc3ccc4c(=O)n(CCN(C)C)c(=O)n5c6ccc(O)cc6c(=O)c3c45)c3c(=O)c4cc(O)ccc4n(c1=O)c23 and CN(C)C(=O)C(F)(F)C(c1ccc(F)cc1)C1C(=O)N(C)C(=O)N(C)C1=O (stereo not given) cannot be ordered by TGI: greater than 46.3 µM for the first, greater than 100 µM for the second.

S=C(Cc1ccc2c(c1)Sc1ccccc1O2)N1CCOCC1 and CC1CC(N2CCOCC2)=Nc2ccccc2N1C (stereo not given) cannot be ordered by TGI: greater than 100 µM for the first, greater than 100 µM for the second.

c1ccc2c(c1)SCCCS2 and NCCN1CCCCCc2ccccc21 cannot be ordered by TGI: greater than 100 µM for the first, greater than 10 µM for the second.

COc1ccc2c(c1)c1c(n2CCN2CCCCC2)-c2cccc(OC)c2CC1 and CN(CCN1CCCC1)C1CCc2cc(Cl)c(Cl)cc2C1 (stereo not given) are within 1.5-fold of each other in TGI: 41.5 µM for the first, 28 µM for the second.

Compared with Cn1nc(-c2ccc(S(=O)(=O)/N=C(\NN)Nc3ccc(Cl)cc3)s2)cc1C(F)(F)F, O=c1[nH]c(NCc2ccncc2)nc2nc[nH]c12 is higher in TGI: 50.7 µM for the first, greater than 100 µM for the second.

Compared with c1ccc(-c2c(-c3ccccc3)[n+](Cc3ccc4ccccc4c3)c(-c3ccc(-c4nc5ccccc5s4)cc3)n2Cc2ccc3ccccc3c2)cc1, COCOc1ccc(C(=O)Oc2cccc3c2OC(C)(C)O3)c(OCOC)c1 is higher in TGI: 2.61 µM for the first, greater than 100 µM for the second.

Compound c1c[nH]c(-c2cccc3nsnc23)c1 has a TGI greater than 100 µM.

In the case of c1ccc(-c2c(-c3ccccc3)[n+](Cc3ccc4ccccc4c3)c(-c3ccc(-c4nc5ccccc5s4)cc3)n2Cc2ccc3ccccc3c2)cc1, the GI50 was 1.07 µM.
